Key:
[1] = Dose response assay, ATPlite viability, four days; format: cell-based; conditions: human, MCF-10A cells, 200 μM C-6, read-out: cells still viable
Method: Cells were seeded in white 96-well plates (Costar, Tewksbury, MA, USA) in 100 μL of their respective media at varying densities to achieve 80% to 90% confluency after five days in culture. The compounds dissolved in DMSO were diluted in their corresponding media containing 2% FBS and an EP Motion 5075 (Eppendorf North America, Hauppauge, NY, USA) liquid handler was utilized to perform a serial dilution. […] After the cells were cultured for 24 hours, the media were aspirated and the cells were treated with the compounds and vehicle controls in triplicate. After four days of treatment, viability was determined utilizing the ATPlite 1step assay system (Perkin Elmer, Waltham, MA, USA) according to the manufacturer's instructions. Luminescence measurements were acquired utilizing a Perkin Elmer 2104 EnVision plate reader. Raw luminescence values were normalized to the DMSO vehicle control wells.

MCF-10A cells [2] = experiment: BrdU proliferation and cell cycle analysis; format: cell-based, human; conditions: 15 μM, 24 or 48 hours vs DMSO
Method: (§1) Cells were seeded in six-well plates (BD Falcon) in their respective media at different densities to attain 70% to 80% confluency at the end of the assay. In order to compare the proliferation rate of established cell lines compared to patient-derived cells, 10 μM of 5-bromo-2-deoxyuridine (BrdU) (Sigma) was added to the culture media for 30 minutes or 6 hours in triplicate. To determine the impact of C-6 on the cell cycle, cells were treated with 15 μM C-6 or 0.02% (v/v) DMSO vehicle in the corresponding media containing 2% FBS for 24 and 48 hours in triplicate followed by treatment with 10 μM BrdU for 30 minutes. Immediately following BrdU treatment, floating cells were collected and adherent cells were trypsinized. Floating and adherent cells were combined, washed with HBSS containing 2% FBS, fixed with 70% ethanol and stored overnight at -20°C. Cells were then treated with 2 M HCl containing 0.5% Triton X-100 (EMD Millipore) for 30 minutes at room temperature and were washed with 0.1 M sodium tetraborate (Sigma) at pH = 8.5. Next, cells were blocked with staining buffer, which consisted of 1% BSA, 0.5% Tween-20 (Fisher Scientific) in PBS, for five minutes and were stained with a mouse monoclonal BrdU antibody (Developmental Studies Hybridoma Bank, Iowa City, IA, USA) for one hour on ice. Cells were subsequently washed and stained with anti-mouse Alexa Fluor® 488 (Life Technologies) for 30 minutes on ice, washed, stained with 5 μg/mL of propidium iodide (EMD Millipore) and passed through a 70-μm cell strainer. Cell suspensions were analyzed using a FACScan flow cytometer and the resulting data were analyzed with Flow Jo software. The average ± SD of three wells for each condition was calculated.

MDA-MB-231 cells [3] = experiment: BrdU proliferation and cell cycle analysis; format: cell-based, human; conditions: MDA-MB-231, 15 μM, 24 or 48 hours vs DMSO
Method: as §1

T47D cells = experiment: BrdU proliferation and cell cycle analysis; format: cell-based, human; conditions: 15 μM, 24 or 48 hours vs DMSO
Method: as §1

MCF-10A cells [4] = experiment: AAF-Glo released protease (cell death) assay; format: cell-based, human; conditions: 30 μM, 24 to 120 hours, vs DMSO
Method: (§2) Adherent cells were seeded in two identical white 96-well plates (Costar) in 100 μL of their respective media at varying densities to achieve 80% to 90% confluency at the end of the assay. After 24 hours, the media were aspirated and the cells were treated with 30 μM C-6 or a matched 0.03% (v/v) DMSO vehicle control in the corresponding media containing 2% FBS. For suspension cultures, cells were first seeded in 75 μL of media. At the start of treatment, 25 μL of a 4× concentration of C-6 or a matched (v/v) DMSO vehicle control was added to each well such that the final volume in each well was 100 μL and the final concentration of C-6 was 30 μM. For the caspase activity assays, additional wells were treated with 1 μM staurosporine. After culturing for the appropriate amount of time, either the AAF-Glo or Caspase-Glo assays (Promega, Madison, WI, USA) were performed on one 96-well plate according to the manufacturer's instructions. For the Caspase-Glo assay, cell viability was determined for the additional 96-well plate utilizing the ATPlite 1step assay system (Perkin Elmer) according to the manufacturer's instructions. For the AAF-Glo assay, the total protein in each well of the additional plate was measured using the BCA protein assay kit (Peirce, Rockford, IL, USA). Luminescence measurements were acquired utilizing a Perkin Elmer 2104 EnVision plate reader. Raw luminescence values for each assay were normalized to the DMSO vehicle control wells. The values for the Caspase-Glo or AAF-Glo assays were then normalized to the ATPlite values or total protein, respectively, in order to account for differences in cell numbers and were plotted as an average ± SD of four wells per condition.

MCF-7 cells = experiment: AAF-Glo released protease (cell death) assay; format: cell-based, human; conditions: MCF-7, 30 μM, 24 to 120 hours, vs DMSO
Method: as §2

MDA-MB-231 cells [5] = experiment: AAF-Glo released protease (cell death) assay; format: cell-based, human; conditions: MDA-MB-231, 30 μM, 24 to 120 hours
Method: as §2

[6] = test system: PE cells from three different patients; experiment: AAF-Glo released protease (cell death) assay; format: cell-based, human; conditions: 30 μM, 24 to 120 hours, vs DMSO
Method: as §2

PE1008032 cells = experiment: AAF-Glo released protease (cell death) assay; format: cell-based, human; conditions: PE1008032, 30 μM, 24 to 120 hours
Method: as §2

[7] = test system: cleaved caspase-3, caspase-8, cleaved caspase-9, and PARP; experiment: Western blot for caspase and PARP cleavage; format: cell-based, human; conditions: 30 μM, 48 hours, cell lines, hTERT-HMEC and PE cells
Method: Cells were lysed in cold radioimmunoprecipitation assay buffer (50 mM Tris HCl, 150 mM NaCl, 0.1% sodium dodecyl sulfate (SDS), 0.5% sodium deoxycholate, 1% Triton X-100, pH = 8.0) supplemented with protease inhibitor cocktail (Sigma), phosphatase inhibitor cocktail 2 (Sigma) and 1 mM dithiothreitol (DTT) (Sigma). The lysate was sonicated for 30 seconds using a 450 Sonifier (Branson Ultrasonics, Danbury, CT, USA) and was centrifuged at 14,000 RPM for five minutes at 4°C. The protein concentration was determined using the BCA protein assay kit (Peirce, Rockford, IL, USA) and the samples were boiled for five minutes with 4× SDS Laemmli buffer. Equal amounts of protein were resolved on SDS polyacrylamide gels and transferred to an Immobilon-FL PVDF membrane (EMD Millipore). Blots were blocked in Odyssey Blocking Buffer (LI-COR, Lincoln, NE, USA) for one hour at room temperature, stained with primary antibodies overnight at 4°C, washed, and stained with IR800CW or IR680 anti-mouse or rabbit secondary antibodies (LI-COR) for one hour at room temperature. Blots were imaged with the Odyssey Infrared Imaging System (LI-COR). […]

Q: Which viability at 4 days, 200 μM [1] does the source give for COc1cc(OC)cc(C(C)c2ccc(NC(=O)OC(C)(C)C)cc2)c1 (stereo not shown) [C-6] here?
A: The viability at 4 days, 200 μM was > 70%.

Q: And the cell cycle profile (MCF-10A cells [2])?
A: The cell cycle profile was “did not show a statistically significant difference”.

Q: And the “percentage of cells in G1/G0” value (MDA-MB-231 cells [3])?
A: The value was “increased”.

Q: What about the “percentage of cells in G1/G0” value (T47D cells) of the same compound?
A: Its value is “increased”.

Q: What about the “relative AAF-Glo activity” value (MCF-10A cells [4]) of the same compound?
A: Its value is “did not cause an increase”.

Q: And the “relative AAF-Glo activity” value (MCF-7 cells)?
A: The value was “significant increase”.

Q: What about the “relative AAF-Glo activity” value (MDA-MB-231 cells [5]) of the same compound?
A: The value was “did not have increased AAF-Glo activity”.

Q: What about the “relative AAF-Glo activity” value [6] of the same compound?
A: Its value is “significant increase”.

Q: And the “relative AAF-Glo activity” value (PE1008032 cells)?
A: Its value is “did not have increased AAF-Glo activity”.

Q: What about the “cleavage of caspase-3, -8, -9, or PARP” value [7] of the same compound?
A: Its value is “did not induce cleavage”.

Reference: PMC4028696, “Development of a screen to identify selective small molecules active against patient-derived metastatic and chemoresistant breast cancer cells” (Breast Cancer Research : BCR, 2013)
